Experimental data published in patent EP0287128A1, “Antitumor agent” (RESEARCH CORPORATION TECHNOLOGIES, INC., priority 1987, dated 1988).

Columns and labels:
Lewis lung carcinoma = experiment: in vivo
Source text: (§1) The tumor tissue was obtained from mice bearing 7 to 10 day old tumors. To obtain the tumors, the animals were sacrificed by cervical dislocation. Tumors were removed aseptically and placed into petri dishes containing ice-cold phosphate buffered saline. Tumors were debrided, necrotic tissue was removed and viable tissue was cut into 2-3 mm fragments. These fragments were loaded into 13-gauge trochars for implantation. Animals were weighed prior to each i.p. injection, which began one day after implantation unless otherwise noted, so that the volume of injection could be adjusted to their individual weight.
(§2) Animals were implanted with Lewis lung carcinoma. Five animals were given FdC (12mg/kg) + H₄U 25mg/kg + BAU 9mg/kg 1/day × 7 days starting on day 1. Comparisons included FUra (25mg/kg) and FUra + BAU (10mg/kg).
(§3) Animals were implanted with Lewis lung carcinoma. Seven animals were given FdC (12mg/kg) + H₄U (25mg/kg) + BAU (30mg/kg). Comparisons included FUra 25 mg/kg and FUra + BAU (30mg/kg). The treatment schedule was as in Example 1A.
(§4) Animals were implanted with Lewis lung carcinoma. The treatment schedule was as described above. A comparison was made with FdU tested at its maximum tolerated dose, 75mg/kg. […] "Day of breakout" indicates the day tumor growth was first noticed in a group of animals in which tumor growth was arrested or in which tumor regression occurred.
(§5) Mice were implanted bilaterally with Lewis lung carcinoma (see Table 3).
(§6) Animals were implanted with Lewis lung carcinoma (see Table 4).

[1] = test system: mammary adenocarcinoma-755 in its ascitic form; experiment: Mammary adenocarcinoma-755, ascitic form, injected i.p. into mice; format: in vivo, BD2F₁ mice; details: for Day of Death / # Cures /6 mice / % Cures / mean day of death / Maximum Weight Loss / T/C: Table 7; for Day of Death: individual animals; for Day of Death / # Cures /6 mice / % Cures / mean day of death / T/C: mg/kg: FdC 12, H4U 25, BAU 10, FUra 26 (with BAU); for Maximum Weight Loss: mg/kg: FdC 12, H4U 25, BAU 10, FUra 26 (with BAU; alone not given); for T/C: not including cures
Source text: Forty-eight hours later (day 2) treatment 1/day × 7) was initiated.

in vivo = details: mouse, in vivo
Source text: as §1, §2, §3, §4, §5, §6

[2] = Example 2, BAU 30 mg/kg, H4U 25 mg/kg, administered without a fluorinated pyrimidine analog
[3] = Table 3, one cycle (I) or no cycle mark, mg/kg: FdU 70, FdC 12, H4U 25, BAU 30 where given

O=c1[nH]cc(F)c(=O)[nH]1 [FUra, 5-fluorouracil]
cures (Lewis lung carcinoma; Examples 1A and 1B together, i.p. 1/day x 7 days from day 1, mg/kg: FdC 12, H4U 25, BAU 9 or 30, FUra 25): No cures
# of cures/6 ([1]; Table 6, inoculum 10^7 cells, mg/kg: FdC 12, H4U 25, BAU 10, FUra 25, FdU 60): No cures
Day of Death ([1]; inoculum 5 x 10^5 cells): 17,18 21,22
Day of Death ([1]; inoculum 10^5 cells): 17,19 21,33
# Cures /6 mice ([1]; inoculum 5 x 10^5 cells): 1
% Cures ([1]; inoculum 5 x 10^5 cells): 17%
mean day of death ([1]; inoculum 5 x 10^5 cells, control 12.5): 19.2
Maximum Weight Loss ([1]; inoculum 5 x 10^5 cells): 17.4
# Cures /6 mice ([1]; inoculum 10^5 cells): 2
% Cures ([1]; inoculum 10^5 cells): 33%
mean day of death ([1]; inoculum 10^5 cells): 20.0
Maximum Weight Loss ([1]; inoculum 10^5 cells): 17.0
T/C ([1]; inoculum 5 x 10^5 cells): 1.51
T/C ([1]; inoculum 10^5 cells): 1.57

O=c1[nH]c(=O)n(COCCO)cc1Cc1ccccc1 [BAU, benzacyclouridine]
cures (Lewis lung carcinoma; [2]): no cures
mean day of death (Lewis lung carcinoma; [2]): no increase
tumor inhibition (Lewis lung carcinoma; [2]): no significant tumor inhibition

O=c1[nH]c(=O)n([C@H]2C[C@H](O)[C@@H](CO)O2)cc1F [FdU, 5-fluorodeoxyuridine]
% Tumor Inhibition (Lewis lung carcinoma; Table 3, day 10, one cycle (I) or no cycle mark, mg/kg: FdU 70, FdC 12, H4U 25, BAU 30 where given): 83%
% Tumor Inhibition (Lewis lung carcinoma; Table 3, day 14, one cycle (I) or no cycle mark, mg/kg: FdU 70, FdC 12, H4U 25, BAU 30 where given): 74%
% Tumor Inhibition (Lewis lung carcinoma; Table 3, day 18, one cycle (I) or no cycle mark, mg/kg: FdU 70, FdC 12, H4U 25, BAU 30 where given): 58%
% Tumor Inhibition (Lewis lung carcinoma; Table 3, day 22, one cycle (I) or no cycle mark, mg/kg: FdU 70, FdC 12, H4U 25, BAU 30 where given): 42%
% Tumor Inhibition (Lewis lung carcinoma; Table 3, day 26, one cycle (I) or no cycle mark, mg/kg: FdU 70, FdC 12, H4U 25, BAU 30 where given): 31%
% Tumor Inhibition (Lewis lung carcinoma; Table 3, day 38, one cycle (I) or no cycle mark, mg/kg: FdU 70, FdC 12, H4U 25, BAU 30 where given): 19%
T/C (Lewis lung carcinoma; Table 3, mean day of death T/C, one cycle (I) or no cycle mark, mg/kg: FdU 70, FdC 12, H4U 25, BAU 30 where given, * not including cures): 1.24
# Cures /6 (Lewis lung carcinoma; [3]): 0
# Toxic Deaths /6 (Lewis lung carcinoma; [3]): 0
Maximum % Weight Loss (Lewis lung carcinoma; [3]): 19%
Mean Day of Death (Lewis lung carcinoma; Table 3, one cycle (I) or no cycle mark, mg/kg: FdU 70, FdC 12, H4U 25, BAU 30 where given, * not including cures, control 21.1): 26.0
MTD at 7 days (in vivo): 75 mg/kg

O=C1NC(O)CCN1[C@@H]1O[C@H](CO)[C@@H](O)[C@H]1O (some centres unmarked) [H₄U, tetrahydrouridine]
cures (Lewis lung carcinoma; [2]): no cures
mean day of death (Lewis lung carcinoma; [2]): no increase
tumor inhibition (Lewis lung carcinoma; [2]): no significant tumor inhibition
